Data on 4 molecules can be found in patent US20020151595A1, “Carboxylic acid amides having antithrombotic activity” (priority 2001, published 2002).

The target of this test is T1, human factor Xa (Homo sapiens, UniProt P00742).
T1 construct: human factor Xa; purchased Roche
Put plainly: Inhibition of factor Xa, enzyme-kinetic measurement with chromogenic substrate. It is filed as biochemical. The following applies: chromogenic substrate Chromozym X 200 μMol/l, pH 8.0, 37° C., photometric at 405 nm. As for the experimental part: Method: Enzyme-kinetic measurement with chromogenic substrate. The quantity of anpnitroaniline (pNA) released from the colourless chromogenic substrate by human factor Xa is determined photometrically at 405 nm. It is proportional to the activity of the enzyme used. The inhibition of the enzyme activity by the test substance (in relation to the solvent control) is determined at various concentrations of test substance and from this the IC50 is calculated, as the concentration which inhibits the factor Xa used by 50%.
Material: Tris(hydroxymethyl)-aminomethane buffer (100 mmol) and sodium chloride (150 mMol), pH 8.0
Factor Xa (Roche), spec. activity: 10 U/0.5 ml, final concentration: 0.175 U/ml per reaction mixture
Substrate Chromozym X (Roche), final concentration: 200 μMol/l per reaction mixture
Procedure: 10 μl of a 23.5-times concentrated starting solution of the test substance or solvent (control), 175 μl of tris(hydroxymethyl)-aminomethane buffer and 25 μl of a 1.65 U/ml Factor Xa working solution are incubated for 10 minutes at 37° C. After the addition of 25 μl of Chromozym X working solution ([…]) the sample is measured in a photometer (SpectraMax 250) at 405 nm for 150 seconds at 37° C.
1. Determining the maximum increase (deltaOD/minutes) over 3 measuring points.
2. Determining the % inhibition based on the solvent control.
3. Plotting a dosage/activity curve (% inhibition vs substance concentration).
4. Determining the IC50 by interpolating the X value (substance concentration) of the dosage/activity curve at Y=50% inhibition.

T1 sequence (P00742 235-488 limits assumed): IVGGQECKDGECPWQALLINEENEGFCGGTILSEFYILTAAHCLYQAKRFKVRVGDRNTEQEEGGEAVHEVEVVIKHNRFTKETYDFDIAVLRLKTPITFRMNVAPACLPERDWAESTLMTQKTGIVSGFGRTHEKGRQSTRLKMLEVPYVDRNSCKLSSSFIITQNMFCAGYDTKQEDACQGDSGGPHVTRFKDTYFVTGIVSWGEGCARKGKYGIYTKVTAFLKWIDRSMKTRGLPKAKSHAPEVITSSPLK
T1 sequence (P00742 41-179 partner limits assumed): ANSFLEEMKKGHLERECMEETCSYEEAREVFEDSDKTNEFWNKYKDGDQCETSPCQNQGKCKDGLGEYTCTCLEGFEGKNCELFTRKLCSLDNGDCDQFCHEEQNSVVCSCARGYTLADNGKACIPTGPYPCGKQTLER

On to `Cc1cc(NC(=O)C(C)(C)c2cccc(C(=N)N)c2)ccc1C(=O)N1CCCC1` [(1)], for which the IC50 (commonly the concentration that inhibits the measured activity by half) was determined as 0.028 µM.

Turning to `Cc1cc(NC(=O)Cc2cc(C(=N)N)ccc2O)ccc1C(=O)C1CCCNC1` (stereo not shown) [(2)], the IC50 amounted to 0.32 µM.

As for `N=C(N)c1ccc(O)c(CC(=O)Nc2ccc(C(=O)N3CCCC3)c(C(F)(F)F)c2)c1` [(4)], the IC50 was 0.011 µM.

On to `N=C(N)c1ccc(O)c(CC(=O)Nc2ccc(C(=O)N3CCCC3)c(Cl)c2)c1` [(3)], for which the IC50 amounted to 0.033 µM.
